Test results: US8273754B2, “Substituted 1H-pyrazolo[3,4-D]pyrimidine-6-amine compounds” (ArQule, Inc., priority 2008, dated 2012)
Read-outs that look alike come from different tables or passages of the source.

Tested on: cancer cells
Experiment: MTS cell growth inhibition assay (72 hours)
Format: cell-based
Procedure: Cells were maintained at 37° C., 5% CO2 in DMEM media supplemented with 1% fetal bovine serum, penicillin/streptomycin and fungizone (Invitrogen). Cells were seeded into 96-well tissue culture plates at 3000 per well and cultured at 37° C. for 18 hours. Test compounds were dissolved and diluted to 300× in DMSO then further diluted 1:40 in DMEM before addition to cells (1:7.5 dilution). Cells were incubated with test compounds for 72 hours followed by incubation with tetrazolium compound (3-(4,5-dimethylthiazol-2-yl)-5-(3-carboxymethoxyphenyl)-2-(4-sulfophenyl)-2H-tetrazolium, inner salt; MTS) and the electron coupling reagent, phenazine methosulfate (PMS) for 4 hours. […] The ability of compounds to inhibit cell growth in this assay is correlated with the reduction of dehydrogenase enzyme activity found in metabolically active cells. The measurement of the absorbance of the formazan was assessed using an ENVISION™ (Perkin Elmer) microplate reader at 492 nm. The calculated IC50 value is the concentration of the test compound that causes a 50% decrease in the absorbance. […] A=>79% inhibition, B=>50 to 79% inhibition, C=<50% inhibition.

[1] = Homo sapiens, DLD-1, 72 h, DLD-1 cells, read-out: DLD-1 MTS 72 hr at 10 μM
[2] = Homo sapiens, KATO III, 72 h, KATO III cells, read-out: KATO III MTS 72 hr at 10 μM
[3] = Homo sapiens, MDA-MB-231, 72 h, MDA-MB-231 cells, read-out: MDA-MB-231 MTS 72 hr at 10 μM
[4] = Homo sapiens, NCI-H1299, 72 h, NCI-H1299 cells, read-out: NCI-H1299 MTS 72 hr at 10 μM
[5] = PaCa-2, 72 h, PACA-2 cells, read-out: PACA-2 MTS 72 hr at 10 μM

Row | SMILES | inhibition at 10 µM [1] [%] | inhibition at 10 µM [2] [%] | inhibition at 10 µM [3] [%] | inhibition at 10 µM [4] [%] | inhibition at 10 µM [5] [%]
1 | Nc1nc(NC2Cc3ccccc3N(S(=O)(=O)c3ccc(-c4ccccc4)cc3)C2)c2cn[nH]c2n1 (stereo not shown) [Compound 16, N4-(1-(biphenyl-4-ylsulfonyl)-1,2,3,4-tetrahydroquinolin-3-yl)-1H-pyrazolo[3,4-d]pyrimidine-4,6-diamine] | 50 to 79 | 50 to 79 | < 50 | < 50 | 50 to 79
2 | Nc1nc(NC2Cc3ccccc3N(S(=O)(=O)c3ccc(F)cc3)C2)c2cn[nH]c2n1 (stereo not shown) [Compound 20, N4-(1-(4-fluorophenylsulfonyl)-1,2,3,4-tetrahydroquinolin-3-yl)-1H-pyrazolo[3,4-d]pyrimidine-4,6-diamine] | < 50 | < 50 | < 50 | < 50 | < 50
3 | Nc1nc(NC2Cc3ccccc3N(S(=O)(=O)Cc3ccccc3)C2)c2cn[nH]c2n1 (stereo not shown) [Compound 21, N4-(1-(benzylsulfonyl)-1,2,3,4-tetrahydroquinolin-3-yl)-1H-pyrazolo[3,4-d]pyrimidine-4,6-diamine] | > 79 | > 79 | 50 to 79 | < 50 | > 79
4 | Cc1ccc(S(=O)(=O)N2CC(Nc3nc(N)nc4[nH]ncc34)Cc3ccccc32)cc1 (stereo not shown) [Compound 22, N4-(1-tosyl-1,2,3,4-tetrahydroquinolin-3-yl)-1H-pyrazolo[3,4-d]pyrimidine-4,6-diamine] | < 50 | < 50 | < 50 | < 50 | < 50
5 | COc1cccc(S(=O)(=O)N2CC(Nc3nc(N)nc4[nH]ncc34)Cc3ccccc32)c1 (stereo not shown) [Compound 24, N4-(1-(3-methoxyphenylsulfonyl)-1,2,3,4-tetrahydroquinolin-3-yl)-1H-pyrazolo[3,4-d]pyrimidine-4,6-diamine] | < 50 | > 79 | < 50 | < 50 | < 50
6 | Nc1nc(NC2Cc3ccccc3N(S(=O)(=O)c3ccc(Oc4ccccc4)cc3)C2)c2cn[nH]c2n1 (stereo not shown) [Compound 27, N4-(1-(4-phenoxyphenylsulfonyl)-1,2,3,4-tetrahydroquinolin-3-yl)-1H-pyrazolo[3,4-d]pyrimidine-4,6-diamine] | > 79 | > 79 | > 79 | 50 to 79 | > 79
7 | CS(=O)(=O)N1CC(Nc2nc(N)nc3[nH]ncc23)Cc2ccccc21 (stereo not shown) [Compound 29, N4-(1-(methylsulfonyl)-1,2,3,4-tetrahydroquinolin-3-yl)-1H-pyrazolo[3,4-d]pyrimidine-4,6-diamine] | < 50 | < 50 | < 50 | < 50 | < 50
8 | N#Cc1ccc(S(=O)(=O)N2CC(Nc3nc(N)nc4[nH]ncc34)Cc3ccccc32)cc1 (stereo not shown) [Compound 30, 4-(3-(6-amino-1H-pyrazolo[3,4-d]pyrimidin-4-ylamino)-3,4-dihydroquinolin-1(2H)-ylsulfonyl)benzonitrile] | < 50 | < 50 | < 50 | < 50 | < 50
9 | Nc1nc(NC2Cc3ccccc3N(S(=O)(=O)c3cc(Cl)ccc3Cl)C2)c2cn[nH]c2n1 (stereo not shown) [Compound 32, N4-(1-(2,5-dichlorophenylsulfonyl)-1,2,3,4-tetrahydroquinolin-3-yl)-1H-pyrazolo[3,4-d]pyrimidine-4,6-diamine] | 50 to 79 | > 79 | < 50 | < 50 | < 50
10 | Nc1nc(NC2Cc3ccccc3N(S(=O)(=O)c3ccc4ccccc4c3)C2)c2cn[nH]c2n1 (stereo not shown) [Compound 34, N4-(1-(naphthalen-2-ylsulfonyl)-1,2,3,4-tetrahydroquinolin-3-yl)-1H-pyrazolo[3,4-d]pyrimidine-4,6-diamine] | < 50 | < 50 | < 50 | < 50 | < 50
11 | Nc1nc(NC2Cc3ccccc3N(S(=O)(=O)c3ccc(Cl)cc3)C2)c2cn[nH]c2n1 (stereo not shown) [Compound 35, N4-(1-(4-chlorophenylsulfonyl)-1,2,3,4-tetrahydroquinolin-3-yl)-1H-pyrazolo[3,4-d]pyrimidine-4,6-diamine] | < 50 | < 50 | < 50 | < 50 | < 50
12 | Nc1nc(NC2Cc3ccccc3N(S(=O)(=O)c3cc(Cl)cc(Cl)c3)C2)c2cn[nH]c2n1 (stereo not shown) [Compound 36, N4-(1-(3,5-dichlorophenylsulfonyl)-1,2,3,4-tetrahydroquinolin-3-yl)-1H-pyrazolo[3,4-d]pyrimidine-4,6-diamine] | < 50 | 50 to 79 | < 50 | < 50 | < 50
13 | Cn1cnc(S(=O)(=O)N2CC(Nc3nc(N)nc4[nH]ncc34)Cc3ccccc32)c1 (stereo not shown) [Compound 38, N4-(1-(1-methyl-1H-imidazol-4-ylsulfonyl)-1,2,3,4-tetrahydroquinolin-3-yl)-1H-pyrazolo[3,4-d]pyrimidine-4,6-diamine] | < 50 | < 50 | < 50 | < 50 | < 50
14 | Nc1nc(NC2Cc3ccccc3N(S(=O)(=O)c3cccc(Br)c3)C2)c2cn[nH]c2n1 (stereo not shown) [Compound 41, N4-(1-(3-bromophenylsulfonyl)-1,2,3,4-tetrahydroquinolin-3-yl)-1H-pyrazolo[3,4-d]pyrimidine-4,6-diamine] | < 50 | > 79 | < 50 | < 50 | < 50
15 | Nc1nc(NC2Cc3ccccc3N(S(=O)(=O)c3ccc(C(F)(F)F)cc3)C2)c2cn[nH]c2n1 (stereo not shown) [Compound 44, N4-(1-(4-(trifluoromethyl)phenylsulfonyl)-1,2,3,4-tetrahydroquinolin-3-yl)-1H-pyrazolo[3,4-d]pyrimidine-4,6-diamine] | < 50 | < 50 | < 50 | < 50 | < 50
16 | Nc1nc(NC2Cc3ccccc3N(S(=O)(=O)c3ccc(F)c(F)c3)C2)c2cn[nH]c2n1 (stereo not shown) [Compound 46, N4-(1-(3,4-difluorophenylsulfonyl)-1,2,3,4-tetrahydroquinolin-3-yl)-1H-pyrazolo[3,4-d]pyrimidine-4,6-diamine] | < 50 | < 50 | < 50 | < 50 | < 50
17 | Nc1nc(NC2Cc3ccccc3N(S(=O)(=O)c3cccc(Cl)c3Cl)C2)c2cn[nH]c2n1 (stereo not shown) [Compound 57, N4-(1-(2,3-dichlorophenylsulfonyl)-1,2,3,4-tetrahydroquinolin-3-yl)-1H-pyrazolo[3,4-d]pyrimidine-4,6-diamine] | < 50 | < 50 | < 50 | < 50 | < 50
